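Dose response: 5 concentrations. Exposure: 48 h. Format: 96-well plates. Endpoint: linear interpolation; highest concentration if not reached. At the GI50, growth is halved. The concentration for full growth arrest is given as TGI.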
What was measured:
Experiment in all cases: inhibition of tumour cell growth, NCI panel, 48 h
[1] = system: HCT-15 colon
[2] = system: SNB-19 CNS
[3] = system: NCI-H226 lung
[4] = system: MALME-3M melanoma
[5] = system: OVCAR-5 ovarian
[6] = system: OVCAR-4 ovarian
[7] = system: TK-10 renal
[8] = system: HOP-62 NSCLC
[9] = system: PC-3 prostate
[10] = system: RXF 393 renal
[11] = system: K-562 leukemia
[12] = system: CAKI-1 renal
[13] = system: A498 renal
[14] = system: HCT-116 colon
[15] = system: SN12C renal
[16] = system: LOX IMVI melanoma
[17] = system: IGROV1 ovarian
[18] = system: OVCAR-8 ovarian
[19] = system: HCC-2998 colon
[20] = system: T-47D breast
[21] = system: SR leukemia
[22] = system: UACC-257 melanoma
[23] = system: HL-60(TB) leukemia
[24] = system: SNB-75 CNS
[25] = system: CCRF-CEM leukemia
[26] = system: RPMI-8226 leukemia
[27] = system: MDA-MB-231 breast
[28] = system: 786-0 renal
[29] = system: BT-549 breast
[30] = system: SK-MEL-5 melanoma
[31] = system: A549 NSCLC
[32] = system: UO-31 renal
[33] = system: MCF7 breast
[34] = system: HS 578T breast
[35] = system: SK-MEL-28 melanoma
[36] = system: DU-145 prostate
[37] = system: MOLT-4 leukemia
[38] = system: HT29 colon
[39] = system: NCI-H522 lung
[40] = system: SK-OV-3 ovarian
[41] = system: COLO 205 colon
[42] = system: NCI/ADR-RES ovarian
[43] = system: M14 melanoma
[44] = system: U251 CNS
[45] = system: NCI-H460 lung
[46] = system: SF-295 CNS
[47] = system: SW-620 colon
[48] = system: ACHN renal
[49] = system: SF-268 CNS
[50] = system: SF-539 CNS
[51] = system: SK-MEL-2 melanoma
[52] = system: MDA-MB-435
[53] = system: NCI-H23 lung
[54] = system: UACC-62 melanoma

`O=c1oc2cc(OS(=O)(=O)c3ccccc3)ccc2c2c1CCCCC2` showed a GI50 [1] of 3.92 µM, a TGI [1] greater than 100 µM and a GI50 [2] greater than 100 µM. For the same compound, the TGI [2] was greater than 100 µM, the GI50 [3] was greater than 100 µM and the TGI [3] was greater than 100 µM. It also gave a GI50 [4] of 29.4 µM, a TGI [4] greater than 100 µM and a GI50 [5] greater than 100 µM. The TGI [5] was greater than 100 µM, the GI50 [6] was 4.58 µM and the TGI [6] was greater than 100 µM. For the same compound, the GI50 [7] was greater than 100 µM, the TGI [7] was greater than 100 µM and the GI50 [8] was greater than 100 µM. For the same compound, the TGI [8] was greater than 100 µM, the GI50 [9] was 2.61 µM and the TGI [9] was greater than 100 µM. It also gave a GI50 [10] of 4.55 µM, a TGI [10] greater than 100 µM and a GI50 [11] of 4.06 µM. It also gave a TGI [11] greater than 100 µM, a GI50 [12] of 7.38 µM and a TGI [12] greater than 100 µM. For the same compound, the GI50 [13] was greater than 100 µM, the TGI [13] was greater than 100 µM and the GI50 [14] was 3.62 µM. For the same compound, the TGI [14] was greater than 100 µM, the GI50 [15] was 7.24 µM and the TGI [15] was greater than 100 µM. The GI50 [16] was 8.71 µM, the TGI [16] was greater than 100 µM and the GI50 [17] was greater than 100 µM. For the same compound, the TGI [17] was greater than 100 µM, the GI50 [18] was 86.1 µM and the TGI [18] was greater than 100 µM. It also gave a GI50 [19] of 32.1 µM, a TGI [19] greater than 100 µM and a GI50 [20] of 3.79 µM. The TGI [20] was greater than 100 µM, the GI50 [21] was 3.01 µM and the TGI [21] was greater than 100 µM. It also gave a GI50 [22] of 7.31 µM, a TGI [22] greater than 100 µM and a GI50 [23] of 2.05 µM. The TGI [23] was 8.54 µM, the GI50 [24] was 16.9 µM and the TGI [24] was greater than 100 µM. The GI50 [25] was 4.56 µM, the TGI [25] was greater than 100 µM and the GI50 [26] was 3.58 µM. The TGI [26] was greater than 100 µM, the GI50 [27] was greater than 100 µM and the TGI [27] was greater than 100 µM. It also gave a GI50 [28] of 6.24 µM, a TGI [28] greater than 100 µM and a GI50 [29] of 5.44 µM. The TGI [29] was greater than 100 µM, the GI50 [30] was 2.88 µM and the TGI [30] was greater than 100 µM. It also gave a GI50 [31] of 4.78 µM, a TGI [31] greater than 100 µM and a GI50 [32] of 8 µM. The TGI [32] was greater than 100 µM, the GI50 [33] was 5.14 µM and the TGI [33] was greater than 100 µM. The GI50 [34] was greater than 100 µM, the TGI [34] was greater than 100 µM and the GI50 [35] was greater than 100 µM. It also gave a TGI [35] greater than 100 µM, a GI50 [36] greater than 100 µM and a TGI [36] greater than 100 µM. The GI50 [37] was 4.35 µM, the TGI [37] was greater than 100 µM and the GI50 [38] was 2.84 µM. The TGI [38] was greater than 100 µM, the GI50 [39] was 6.44 µM and the TGI [39] was greater than 100 µM. It also gave a GI50 [40] greater than 100 µM, a TGI [40] greater than 100 µM and a GI50 [41] of 3.51 µM. The TGI [41] was greater than 100 µM, the GI50 [42] was 4.53 µM and the TGI [42] was greater than 100 µM. For the same compound, the GI50 [43] was 8.8 µM, the TGI [43] was greater than 100 µM and the GI50 [44] was 4.51 µM. It also gave a TGI [44] greater than 100 µM, a GI50 [45] of 4.27 µM and a TGI [45] greater than 100 µM. The GI50 [46] was greater than 100 µM, the TGI [46] was greater than 100 µM and the GI50 [47] was 4.89 µM. It also gave a TGI [47] greater than 100 µM, a GI50 [48] greater than 100 µM and a TGI [48] greater than 100 µM. The GI50 [49] was greater than 100 µM, the TGI [49] was greater than 100 µM and the GI50 [50] was 6.68 µM. It also gave a TGI [50] greater than 100 µM, a GI50 [51] greater than 100 µM and a TGI [51] greater than 100 µM. The GI50 [52] was 9.44 µM, the TGI [52] was greater than 100 µM and the GI50 [53] was 7.27 µM. It also gave a TGI [53] greater than 100 µM, a GI50 [54] of 4.73 µM and a TGI [54] greater than 100 µM.

Reference: PubChem BioAssay (NCI)
